Source: ChEMBL document CHEMBL2434826, “Multifunctional tacrine-flavonoid hybrids with cholinergic, β-amyloid-reducing, and metal chelating properties for the treatment of Alzheimer's disease” (Eur J Med Chem, 2013)
Active and inactive are the calls of the source. No cut-off for these calls is given here.

Columns and labels:
[1] = system: Radical scavenging activity; assay: Antioxidant activity assessed as DPPH radical scavenging activity at 2 mM relative to control; format: functional
[2] = Cytotoxicity against human SH-SY5Y cells assessed as survival at 25 uM after 24 hrs by MTT assay relative to control; format: cell-based; conditions: read-out: Survival
[3] = Cytotoxicity against human SH-SY5Y cells assessed as survival at 50 uM after 24 hrs by MTT assay relative to control; format: cell-based; conditions: read-out: Survival
[4] = Cytotoxicity against human SH-SY5Y cells assessed as survival at 5 uM after 24 hrs by MTT assay relative to control; format: cell-based; conditions: read-out: Survival
[5] = Cytotoxicity against human SH-SY5Y cells assessed as survival at 10 uM after 24 hrs by MTT assay relative to control; format: cell-based; conditions: read-out: Survival
[6] = Cytotoxicity against human SH-SY5Y cells assessed as survival at 1 uM after 24 hrs by MTT assay relative to control; format: cell-based; conditions: read-out: Survival
[7] = molecular target: T1, Amyloid-beta precursor protein (Homo sapiens, UniProt P05067); assay: Inhibition of amyloid beta (1 to 42) (unknown origin) self-induced aggregation at 20 uM after 48 hrs by thioflavin T fluorescence assay relative to control
[8] = Metal chelating activity of the compound assessed as Cu2+-complex formation in methanol at 25 uM by UV-vis spectrophotometric analysis; format: functional
[9] = Metal chelating activity of the compound assessed as Fe2+-complex formation in methanol at 25 uM by UV-vis spectrophotometric analysis; format: functional
[10] = molecular target: T1, Amyloid-beta precursor protein
Description: Inhibition of amyloid beta (1 to 42) (unknown origin) self-induced aggregation after 48 hrs by thioflavin T fluorescence assay

[11] = molecular target: Cholinesterase (Equus caballus, UniProt P81908)
Description: Inhibition of equine serum BuChE using S-butyrylcholinesterase iodide as substrate preincubated for 6 mins followed by substrate addition by Ellmans method

[12] = molecular target: Acetylcholinesterase (Electrophorus electricus, UniProt O42275)
Description: Inhibition of electric eel AChE using acetylthiocholine iodide as substrate preincubated for 6 mins followed by substrate addition by Ellmans method

[13] = molecular target: Cholinesterase (Equus caballus) (UniProt P81908); assay: Potency index, ratio of tacrine IC50 to compound IC50 for equine serum BuChE
[14] = molecular target: Cholinesterase (Equus caballus) (UniProt P81908); assay: Potency index, ratio of galanthamine IC50 to compound IC50 for equine serum BuChE
[15] = molecular target: Acetylcholinesterase (Electrophorus electricus) (UniProt O42275); assay: Potency index, ratio of tacrine IC50 to compound IC50 for electric eel AChE
[16] = molecular target: Acetylcholinesterase (Electrophorus electricus) (UniProt O42275); assay: Potency index, ratio of galanthamine IC50 to compound IC50 for electric eel AChE
[17] = molecular target: Cholinesterase (Equus caballus) (UniProt P81908); assay: Competitive inhibition of equine serum BuChE using […] as substrate at 22.5 to 90 nM by Lineweaver-Burk plot analysis
[18] = molecular target: Acetylcholinesterase (Electrophorus electricus) (UniProt O42275); conditions: 7.7 to 30.8 nM

Chain of Acetylcholinesterase (O42275 whole entry): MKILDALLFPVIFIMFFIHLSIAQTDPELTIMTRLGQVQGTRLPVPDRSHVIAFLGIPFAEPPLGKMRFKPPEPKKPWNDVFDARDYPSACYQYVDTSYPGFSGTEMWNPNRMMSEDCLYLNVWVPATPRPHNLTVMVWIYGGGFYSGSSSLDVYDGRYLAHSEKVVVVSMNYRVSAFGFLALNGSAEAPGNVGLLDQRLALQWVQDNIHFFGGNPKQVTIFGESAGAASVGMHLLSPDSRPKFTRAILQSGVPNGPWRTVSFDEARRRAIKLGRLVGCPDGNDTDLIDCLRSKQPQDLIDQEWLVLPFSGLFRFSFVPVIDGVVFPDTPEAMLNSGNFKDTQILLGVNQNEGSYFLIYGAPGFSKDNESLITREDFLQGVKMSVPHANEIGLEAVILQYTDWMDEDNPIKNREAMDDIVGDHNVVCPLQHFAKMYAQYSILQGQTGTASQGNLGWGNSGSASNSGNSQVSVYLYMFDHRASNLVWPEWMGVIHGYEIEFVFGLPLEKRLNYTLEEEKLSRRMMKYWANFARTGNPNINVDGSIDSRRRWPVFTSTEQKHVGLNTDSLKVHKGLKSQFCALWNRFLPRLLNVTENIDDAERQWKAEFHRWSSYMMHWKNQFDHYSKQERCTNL
Chain of Acetylcholinesterase (Electrophorus electricus) (O42275 24-633 limits assumed): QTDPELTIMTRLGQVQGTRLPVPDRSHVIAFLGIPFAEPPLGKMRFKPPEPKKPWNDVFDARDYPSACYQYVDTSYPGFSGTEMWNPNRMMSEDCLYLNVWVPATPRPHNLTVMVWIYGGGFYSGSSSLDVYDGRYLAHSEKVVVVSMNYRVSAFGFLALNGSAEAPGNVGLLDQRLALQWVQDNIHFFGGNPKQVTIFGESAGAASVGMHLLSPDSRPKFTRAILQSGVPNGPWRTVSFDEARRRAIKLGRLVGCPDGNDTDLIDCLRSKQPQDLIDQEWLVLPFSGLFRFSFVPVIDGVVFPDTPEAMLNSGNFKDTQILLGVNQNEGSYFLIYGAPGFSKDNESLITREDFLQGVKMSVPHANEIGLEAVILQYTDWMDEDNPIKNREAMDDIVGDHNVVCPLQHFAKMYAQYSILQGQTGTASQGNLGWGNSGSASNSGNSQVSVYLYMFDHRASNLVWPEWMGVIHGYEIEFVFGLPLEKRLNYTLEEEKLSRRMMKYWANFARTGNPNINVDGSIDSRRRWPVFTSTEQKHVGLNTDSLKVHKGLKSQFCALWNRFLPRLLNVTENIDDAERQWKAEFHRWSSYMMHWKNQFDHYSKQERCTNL
T1 sequence (P05067 whole entry): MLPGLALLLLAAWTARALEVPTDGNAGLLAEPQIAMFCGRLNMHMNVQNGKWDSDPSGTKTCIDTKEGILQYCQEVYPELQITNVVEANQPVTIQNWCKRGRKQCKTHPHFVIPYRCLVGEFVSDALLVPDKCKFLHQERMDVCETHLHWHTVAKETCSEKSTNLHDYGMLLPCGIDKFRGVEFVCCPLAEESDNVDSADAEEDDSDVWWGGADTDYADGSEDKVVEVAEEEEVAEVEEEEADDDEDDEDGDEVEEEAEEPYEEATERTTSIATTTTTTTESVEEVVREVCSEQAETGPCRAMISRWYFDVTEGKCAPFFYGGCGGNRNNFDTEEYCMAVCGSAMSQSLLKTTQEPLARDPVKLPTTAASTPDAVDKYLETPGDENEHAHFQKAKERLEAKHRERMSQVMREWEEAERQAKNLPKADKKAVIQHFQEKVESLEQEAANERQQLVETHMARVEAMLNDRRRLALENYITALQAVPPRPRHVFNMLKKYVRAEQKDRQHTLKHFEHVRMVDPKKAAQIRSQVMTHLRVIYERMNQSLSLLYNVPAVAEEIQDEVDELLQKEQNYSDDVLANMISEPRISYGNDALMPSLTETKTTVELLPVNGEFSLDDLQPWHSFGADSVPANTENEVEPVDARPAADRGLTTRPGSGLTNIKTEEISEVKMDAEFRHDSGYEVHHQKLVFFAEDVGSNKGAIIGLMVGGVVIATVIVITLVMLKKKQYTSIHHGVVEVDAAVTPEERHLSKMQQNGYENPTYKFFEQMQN
Chain of Cholinesterase (Equus caballus) (P81908 whole entry): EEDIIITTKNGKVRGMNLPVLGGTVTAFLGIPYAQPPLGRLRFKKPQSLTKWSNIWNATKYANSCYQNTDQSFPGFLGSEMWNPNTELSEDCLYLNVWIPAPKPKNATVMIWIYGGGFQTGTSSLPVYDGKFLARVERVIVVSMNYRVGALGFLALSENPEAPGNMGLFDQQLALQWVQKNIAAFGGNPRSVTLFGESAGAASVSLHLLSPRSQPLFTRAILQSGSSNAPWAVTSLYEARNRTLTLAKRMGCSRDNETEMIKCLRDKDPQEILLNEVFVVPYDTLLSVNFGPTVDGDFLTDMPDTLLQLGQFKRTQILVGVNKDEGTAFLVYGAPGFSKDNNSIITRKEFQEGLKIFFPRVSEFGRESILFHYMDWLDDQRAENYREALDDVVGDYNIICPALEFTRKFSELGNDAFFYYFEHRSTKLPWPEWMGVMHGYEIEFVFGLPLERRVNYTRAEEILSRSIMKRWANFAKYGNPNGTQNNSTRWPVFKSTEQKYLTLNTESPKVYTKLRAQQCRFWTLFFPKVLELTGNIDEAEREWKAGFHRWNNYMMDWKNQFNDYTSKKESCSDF
Chain of Cholinesterase (P81908 whole entry): as above

Compound	Activity [1]	inhibition [7]	IC50 [10]	IC50 [11]	IC50 [12]	other results
O=c1cc(-c2ccccc2)oc2cc(OCCCN3CCN(CCCNc4c5c(nc6ccccc46)CCCC5)CC3)cc(O)c12	< 36%	79.1%	6.5 µM	0.558 µM	0.133 µM	viability at 24 h, 25 µM [2]: 92.7%; viability at 24 h, 50 µM [3]: 90.1%; viability at 24 h, 5 µM [4]: 96.5%; viability at 24 h, 10 µM [5]: 94.4%; viability at 24 h, 1 µM [6]: 97.3%; Activity [8]: Active; Activity [9]: Active
O=c1cc(-c2ccccc2)oc2cc(OCCN3CCN(CCNc4c5c(nc6ccccc46)CCCC5)CC3)ccc12	< 36%	54.1%	16.8 µM	0.52 µM	0.481 µM	–
O=c1cc(-c2ccccc2)oc2cc(OCCCCN3CCN(CCNc4c5c(nc6ccccc46)CCCC5)CC3)ccc12	< 36%	53.7%	16.4 µM	0.197 µM	0.268 µM	–
O=c1cc(-c2ccccc2)oc2cc(O)ccc12 [7-HYDROXYFLAVONE]	–	27.2%	–	> 100 µM	85 µM	–
COc1ccc(-c2cc(=O)c3ccc(OCCCN4CCN(CCCNc5c6c(nc7ccccc57)CCCC6)CC4)cc3o2)cc1	< 36%	10.9%	–	0.655 µM	0.417 µM	–
O=c1cc(-c2ccccc2)oc2cc(OCCCCCN3CCN(CCCNc4c5c(nc6ccccc46)CCCC5)CC3)ccc12	< 36%	62.5%	13.2 µM	0.423 µM	0.594 µM	–
O=c1cc(-c2ccccc2)oc2cc(OCCN3CCN(CCCNc4c5c(nc6ccccc46)CCCC5)CC3)ccc12	< 36%	70%	9.8 µM	0.266 µM	0.416 µM	–
Nc1ccc(-c2cc(=O)c3ccc(OCCCN4CCN(CCCNc5c6c(nc7ccccc57)CCCC6)CC4)cc3o2)cc1	< 36%	9%	–	0.685 µM	0.336 µM	–
O=c1cc(-c2ccc([N+](=O)[O-])cc2)oc2cc(OCCCN3CCN(CCCNc4c5c(nc6ccccc46)CCCC5)CC3)ccc12	< 36%	61.1%	14.1 µM	0.46 µM	0.075 µM	–
O=c1cc(-c2ccccc2)oc2cc(OCCCN3CCN(CCCNc4c5c(nc6ccccc46)CCCC5)CC3)ccc12	< 36%	58%	14.9 µM	0.208 µM	0.153 µM	–
O=c1cc(-c2ccccc2)oc2cc(OCCCCCCN3CCN(CCCNc4c5c(nc6ccccc46)CCCC5)CC3)ccc12	< 36%	63%	13.5 µM	0.414 µM	0.848 µM	–
O=c1cc(-c2ccccc2)oc2cc(OCCCN3CCN(CCNc4c5c(nc6ccccc46)CCCC5)CC3)ccc12	< 36%	59.1%	13.7 µM	0.311 µM	0.624 µM	–
O=c1cc(-c2ccccc2)oc2cc(OCCCCCN3CCN(CCNc4c5c(nc6ccccc46)CCCC5)CC3)ccc12	< 36%	65.4%	12.8 µM	0.258 µM	0.568 µM	–
O=c1cc(-c2ccc(Cl)cc2)oc2cc(OCCCN3CCN(CCCNc4c5c(nc6ccccc46)CCCC5)CC3)ccc12	< 36%	48.9%	–	0.994 µM	0.0401 µM	–
CN(C)c1ccc(-c2cc(=O)c3ccc(OCCCN4CCN(CCCNc5c6c(nc7ccccc57)CCCC6)CC4)cc3o2)cc1	< 36%	12.2%	–	0.845 µM	0.23 µM	–
O=c1cc(-c2ccccc2)oc2cc(OCCCCN3CCN(CCCNc4c5c(nc6ccccc46)CCCC5)CC3)ccc12	< 36%	53.4%	17.3 µM	0.317 µM	0.547 µM	–
O=c1ccoc2cc(OCCCN3CCN(CCCNc4c5c(nc6ccccc46)CCCC5)CC3)ccc12	< 36%	67.4%	11.5 µM	0.0258 µM	0.0103 µM	Ratio IC50 [13]: 2; Ratio IC50 [14]: 508
COc1cc(OCCCN2CCN(CCCNc3c4c(nc5ccccc35)CCCC4)CC2)cc2occc(=O)c12	< 36%	62%	12.6 µM	0.035 µM	0.0084 µM	Ratio IC50 [15]: 31; Ratio IC50 [16]: 318
Cc1ccc(-c2cc(=O)c3ccc(OCCCN4CCN(CCCNc5c6c(nc7ccccc57)CCCC6)CC4)cc3o2)cc1	< 36%	13.4%	–	0.573 µM	0.316 µM	–
O=c1cc(-c2ccccc2)oc2cc(OCCCCCCN3CCN(CCNc4c5c(nc6ccccc46)CCCC5)CC3)ccc12	< 36%	63.3%	14.2 µM	0.289 µM	0.717 µM	–
O=c1ccoc2cc(OCCCN3CCN(CCCNc4c5c(nc6ccccc46)CCCC5)CC3)cc(O)c12	< 36%	85.3%	4.8 µM	0.045 µM	0.0154 µM	inhibition [17]: Active; inhibition [18]: Active
COc1cc(OCCCN2CCN(CCCNc3c4c(nc5ccccc35)CCCC4)CC2)cc2oc(-c3ccccc3)cc(=O)c12	< 36%	68.7%	9.6 µM	0.36 µM	0.0577 µM	–
